Results taken from the NIST ThermoML archive (doi:10.1021/je0601098).

Tests used:
[1] = 298.15 K, 101 kPa, Liquid; for speed of sound: Linear variable-path acoustic interferometer
[2] = mn = molality of the nth substance listed, in mol/kg; conditions: 298.15 K, 101 kPa, Liquid; for speed of sound: Linear variable-path acoustic interferometer

CCO [ethanol]
[1]
Conditions | mass density [kg/m3] | speed of sound [m/s]
– | 785.207 | 1142.1

CCO [ethanol] + O
[2]
Conditions | mass density [kg/m3] | speed of sound [m/s]
m2 = 0 | 785.207 | 1142.1
m2 = 0.214 | 786.407 | 1144.6
m2 = 0.2705 | 786.72 | 1145.9
m2 = 0.3199 | 786.998 | 1146.8
m2 = 0.3659 | 787.262 | 1148.6
m2 = 0.4543 | 787.753 | 1151
m2 = 0.5541 | 788.3 | 1153.2
m2 = 0.6437 | 788.782 | 1154.8
m2 = 0.743 | 789.321 | 1156.4
m2 = 0.8349 | 789.775 | 1157.7
m2 = 0.9264 | 790.279 | 1159.5
m2 = 1.019 | 790.734 | 1160.1

CO [methanol]
[1]
Conditions | mass density [kg/m3] | speed of sound [m/s]
– | 786.66 | 1103.8

CO [methanol] + O
[2]
Conditions | mass density [kg/m3] | speed of sound [m/s]
m2 = 0 | 786.66 | 1103.8
m2 = 0.1566 | 787.454 | 1106
m2 = 0.2143 | 787.724 | 1106.2
m2 = 0.2641 | 788.016 | 1106.2
m2 = 0.3211 | 788.308 | 1107.2
m2 = 0.4121 | 788.789 | 1107.9
m2 = 0.5085 | 789.27 | 1109.8
m2 = 0.6159 | 789.834 | 1112.6
m2 = 0.7089 | 790.308 | 1113.4
m2 = 0.8074 | 790.823 | 1114.4
m2 = 0.9136 | 791.368 | 1117.1
m2 = 1.018 | 791.86 | 1118

CCCO [propan-1-ol]
[1]
Conditions | mass density [kg/m3] | speed of sound [m/s]
– | 799.683 | 1207

CCCO [propan-1-ol] + O
[2]
Conditions | mass density [kg/m3] | speed of sound [m/s]
m2 = 0 | 799.683 | 1207
m2 = 0.1627 | 800.472 | 1209
m2 = 0.217 | 800.732 | 1209.9
m2 = 0.2635 | 800.961 | 1210.1
m2 = 0.3129 | 801.185 | 1211.5
m2 = 0.4209 | 801.664 | 1213
m2 = 0.5137 | 802.083 | 1213.4
m2 = 0.6196 | 802.528 | 1214.7
m2 = 0.7183 | 802.982 | 1215.8
m2 = 0.8205 | 803.412 | 1217.2
m2 = 0.9191 | 803.833 | 1218.1
m2 = 1.005 | 804.252 | 1219.3

C1CCOC1 [tetrahydrofuran]
[1]
Conditions | mass density [kg/m3] | speed of sound [m/s]
– | 882.056 | 1280.2

C1CCOC1 [tetrahydrofuran] + O
[2]
Conditions | mass density [kg/m3] | speed of sound [m/s]
m2 = 0 | 882.056 | 1280.2
m2 = 0.1301 | 882.394 | 1281.2
m2 = 0.1845 | 882.536 | 1281.7
m2 = 0.2263 | 882.674 | 1282
m2 = 0.244 | 882.753 | 1282.4
m2 = 0.3258 | 882.981 | 1282.9
m2 = 0.4247 | 883.242 | 1283.2
m2 = 0.525 | 883.543 | 1283.9
m2 = 0.6245 | 884.032 | 1284.6
m2 = 0.7309 | 884.381 | 1285.1
m2 = 0.8254 | 884.726 | 1286
m2 = 0.9243 | 885.015 | 1287
m2 = 1.029 | 885.427 | 1288
